Assay results published in patent US6486185B1, “3-heteroarylidene-2-indolinone protein kinase inhibitors” (Sugen, Inc., priority 1997, dated 2002).

Columns and labels:
IGF-1R = biological target: T1, IGF-1R (Homo sapiens, UniProt P08069); experiment: IGF-I receptor ELISA in 3T3/IGF-1R cells; type: cell-based; conditions: 50% inhibition of PTK activity over control
T1 construct: expressed in transfected cells; host or cells: NIH3T3 (3T3/IGF-1R)
Experimental: (§1) The cellular/catalytic assays described herein are performed in an ELISA format. The general procedure is a follows: a compound is introduced to cells expressing the test kinase, either naturally or recombinantly, for some period of time after which, if the test kinase is a receptor, a ligand known to activate the receptor's activity is added. The cells are lysed and the lysate is transferred to the wells of an ELISA plate previously coated with a specific antibody recognizing the substrate of the enzymatic phosphorylation reaction. Non-substrate components of the cell lysate are washed away and the amount of phosphorylation on the substrate is detected with an antibody specifically recognizing phosphotyrosine compared with control cells that were not contacted with a test compound.
The following protocol may be used to measure phosphotyrosine level on IGF-I receptor, which indicates IGF-I receptor tyrosine kinase activity.
The following materials and reagents are used:
a. The cell line used in this assay is 3T3/IGF-1R, a cell line genetically engineered to overexpresses IGF-1 receptor.
b. NIH3T3/IGF-1R is grown in an incubator with 5% CO2 at 37° C. The growth media is DMEM+10% FBS (heat inactivated)+2 mM L-glutamine.
c. Affinity purified anti-IGF-1R antibody 17-69.
e. Blocking Buffer: TBST plus 5% Milk (Carnation Instant Non-Fat Dry Milk).
Stock solution of TBS (10×) is prepared, and Triton X-100 is added to the buffer during dilution.
Stock solution (5×) is prepared and kept at 4° C.
h. EDTA/HCl: 0.5 M pH 7.0 (NaOH) as 100×stock.
i. Na3VO4: 0.5 M as 100×stock and aliquots are kept in −80° C.
k. Insulin-like growth factor-1 from Promega (Cat# G5111).
l. Rabbit polyclonal anti-phosphotyrosine antiserum.
m. Goat anti-rabbit IgG, POD conjugate (detection antibody), Tago (Cat. No. 4520, Lot No. 1802): Tago, Inc., Burlingame, Calif.
n. ABTS (2,2′-azinobis(3-ethylbenzthiazolinesulfonic acid)) solution:
ABTS solution should be kept in dark and 4° C. The solution should be discarded when it turns green.
o. Hydrogen Peroxide: 30% solution is kept in the dark and at 4° C.
All the following steps are conducted at room temperature unless it is specifically indicated. All ELISA plate washings are performed by rinsing the plate with tap water three times, followed by one TBST rinse. Pat plate dry with paper towels.
1. The cells, grown in tissue culture dish (Corning 25020-100) to 80-90% confluence, are harvested with Trypsin-EDTA (0.25%, 0.5 mL/D-100, GIBCO).
2. Resuspend the cells in fresh DMEM+10% FBS+2 mM L-Glutamine, and transfer to 96-well tissue culture plate (Corning, 25806-96) at 20,000 cells/well (100 μL/well). Incubate for 1 day then replace medium to serum-free medium (90/μL) and incubate in 5% CO2 and 37° C. overnight.
B. ELISA Plate Coating and Blocking:
1. Coat the ELISA plate (Corning 25805-96) with Anti-IGF-1R Antibody at 0.5 μg/well in 100 μL PBS at least 2 hours.
2. Remove the coating solution, and replace with 100 μL Blocking Buffer, and shake for 30 minutes. Remove the blocking buffer and wash the plate just before adding lysate.
1. The drugs are tested in serum-free condition.
2. Dilute drug stock (in 100% DMSO) 1:10 with DMEM in 96-well poly-propylene plate, and transfer 10 μL/well of this solution to the cells to achieve final drug dilution 1:100, and final DMSO concentration of 1.0%. Incubate the cells in 5% CO2 at 37° C. for 2 hours.
3. Prepare fresh cell lysis buffer (HNTG*)
4. After drug incubation for two hours, transfer 10 μL/well of 200 nM IGF-1 Ligand in PBS to the cells (Final Conc.=20 nM), and incubate at 5% CO2 at 37° C. for 10 minutes.
5. Remove media and add 100 μL/well HNTG* and shake for 10 minutes. Look at cells under microscope to see if they are adequately lysed.
6. Use a 12-channel pipette to scrape the cells from the plate, and homogenize the lysate.by repeated aspiration and dispensing. Transfer all the lysate to the antibody coated ELISA plate, and shake for 1 hour.
7. […]

EGFR = biological target: T2, EGFR (Homo sapiens, UniProt P00533); experiment: EGF receptor ELISA in cells engineered to express human EGF-R; type: cell-based; conditions: 50% inhibition of PTK activity over control
T2 construct: expressed in transfected cells; host or cells: NIH 3T3/C7
T2 sequence (P00533 25-1210): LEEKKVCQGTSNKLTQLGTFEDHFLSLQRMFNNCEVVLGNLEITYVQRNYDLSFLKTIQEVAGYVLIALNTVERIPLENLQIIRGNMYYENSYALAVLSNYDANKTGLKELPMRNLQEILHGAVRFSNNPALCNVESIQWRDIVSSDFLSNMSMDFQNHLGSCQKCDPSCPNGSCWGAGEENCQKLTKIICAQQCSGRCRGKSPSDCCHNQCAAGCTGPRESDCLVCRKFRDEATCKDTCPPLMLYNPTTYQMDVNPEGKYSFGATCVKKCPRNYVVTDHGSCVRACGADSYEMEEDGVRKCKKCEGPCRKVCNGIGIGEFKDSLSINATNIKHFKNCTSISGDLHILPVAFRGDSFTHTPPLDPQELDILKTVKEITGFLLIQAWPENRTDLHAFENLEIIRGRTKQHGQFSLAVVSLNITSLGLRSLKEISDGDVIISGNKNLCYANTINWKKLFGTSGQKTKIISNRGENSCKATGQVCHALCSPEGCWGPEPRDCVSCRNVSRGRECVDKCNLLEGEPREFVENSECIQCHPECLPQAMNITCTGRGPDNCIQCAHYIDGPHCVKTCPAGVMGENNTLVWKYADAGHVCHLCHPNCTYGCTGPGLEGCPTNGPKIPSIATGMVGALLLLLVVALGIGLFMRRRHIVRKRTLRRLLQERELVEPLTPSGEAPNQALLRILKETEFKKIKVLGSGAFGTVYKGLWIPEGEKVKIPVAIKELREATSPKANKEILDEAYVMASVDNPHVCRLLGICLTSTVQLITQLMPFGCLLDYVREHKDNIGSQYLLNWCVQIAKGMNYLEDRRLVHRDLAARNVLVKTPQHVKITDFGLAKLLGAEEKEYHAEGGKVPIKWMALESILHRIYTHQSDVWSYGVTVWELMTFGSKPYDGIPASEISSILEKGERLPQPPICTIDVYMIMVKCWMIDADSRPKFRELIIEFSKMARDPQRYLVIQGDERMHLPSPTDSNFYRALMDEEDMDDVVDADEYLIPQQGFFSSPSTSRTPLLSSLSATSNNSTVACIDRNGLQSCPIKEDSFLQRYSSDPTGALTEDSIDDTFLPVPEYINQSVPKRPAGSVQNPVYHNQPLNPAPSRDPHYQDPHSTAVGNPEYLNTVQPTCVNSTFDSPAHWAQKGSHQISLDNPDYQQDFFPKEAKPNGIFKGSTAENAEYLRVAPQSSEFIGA
Experimental: as §1
EGF Receptor kinase activity in cells genetically engineered to express human EGF-R can be measured as described below:
The following materials and reagents are used
a. EGF Ligand: stock concentration=16.5 μM; EGF 201, TOYOBO, Co., Ltd. Japan.
b. 05-101 (UBI) (a monoclonal antibody recognizing an EGFR extracellular domain).
c. Anti-phosphotyosine antibody (anti-Ptyr) (polyclonal).
d. Detection antibody: Goat anti-rabbit lgG horse radish peroxidase conjugate, TAGO, Inc., Burlingame, Calif.
Keep solution in dark at 4 C until used.
The following protocol is used:
1. Coat ELISA plates (Corning, 96 well, Cat. #25805-96) with 05-101 antibody at 0.5 μg per well in PBS, 150 μL final volume/well, and store overnight at 4° C. Coated plates are good for up to 10 days when stored at 4° C.
2. On day of use, remove coating buffer and replace with blocking buffer (5% Carnation Instant NonFat Dry Milk in PBS). Incubate the plate, shaking, at room temperature (about 23° C. to 25° C.) for 30 minutes. Just prior to use, remove blocking buffer and wash plate 4 times with TBST buffer.
1. NIH 3T3/C7 cell line (Honegger, et al., Cell 51:199-209, 1987) can be use for this assay.
2. Choose dishes having 80-90% confluence for the experiment. Trypsinize cells and stop reaction by adding 10% CS DMEM medium. Suspend cells in DMEM medium (10% CS DMEM medium) and centrifuge once at 1000 rpm at room temperature for 5 minutes.
3. Resuspend cells in seeding medium (DMEM, 0.5% bovine serum), and count the cells using trypan blue. Viability above 90% is acceptable. Seed cells in DMEM medium (0.5% bovine serum) at a density of 10,000 cells per well, 100 μL per well, in a 96 well microtiter plate. Incubate seeded cells in 5% CO2 at 37° C. for about 40 hours.
1. Check seeded cells for contamination using an inverted microscope. Dilute drug stock (10 mg/mL in DMSO) 1:10 in DMEM medium, then transfer 5 μL to a test well for a final drug dilution of 1:200 and a final DMSO concentration of 1%. Control wells receive DMSO alone. Incubate in 5% CO2 at 37° C. for one hour.
2. Prepare EGF ligand: dilute stock EGF in DMEM so that upon transfer of 10 μL dilute EGF (1:12 dilution), 25 nM final concentration is attained.
3. Prepare fresh 10 mL HNTG* sufficient for 100 μL per well wherein HNTG* comprises: HNTG stock (2.0 mL), milli-Q H2O (7.3 mL), EDTA, 100 mM, pH 7.0 (0.5 mL), Na3VO4 0.5 M (0.1 mL) and Na4(P2O7), 0.2 M (0.1 mL).
5. After two hours incubation with drug, add prepared EGF ligand to cells, 10 μL per well, to yield a final concentration of 25 nM. Control wells receive DMEM alone. Incubate, shaking, at room temperature, for 5 minutes.
6. Remove drug, EGF, and DMEM. Wash cells twice with PBS. Transfer HNTG* to cells, 100 μL per well. Place on ice for 5 minutes. Meanwhile, remove blocking buffer from other ELISA plate and wash with TBST as described above.
7. With a pipette tip securely fitted to a micropipettor, scrape cells from plate and homogenize cell material by repeatedly aspirating and dispensing the HNTG* lysis buffer. Transfer lysate to a coated, blocked, and washed ELISA plate. Incubate shaking at room temperature for one hour.
8. Remove lysate and wash 4 times with TBST. […]

T1 sequence (P08069 31-1367, species assumed): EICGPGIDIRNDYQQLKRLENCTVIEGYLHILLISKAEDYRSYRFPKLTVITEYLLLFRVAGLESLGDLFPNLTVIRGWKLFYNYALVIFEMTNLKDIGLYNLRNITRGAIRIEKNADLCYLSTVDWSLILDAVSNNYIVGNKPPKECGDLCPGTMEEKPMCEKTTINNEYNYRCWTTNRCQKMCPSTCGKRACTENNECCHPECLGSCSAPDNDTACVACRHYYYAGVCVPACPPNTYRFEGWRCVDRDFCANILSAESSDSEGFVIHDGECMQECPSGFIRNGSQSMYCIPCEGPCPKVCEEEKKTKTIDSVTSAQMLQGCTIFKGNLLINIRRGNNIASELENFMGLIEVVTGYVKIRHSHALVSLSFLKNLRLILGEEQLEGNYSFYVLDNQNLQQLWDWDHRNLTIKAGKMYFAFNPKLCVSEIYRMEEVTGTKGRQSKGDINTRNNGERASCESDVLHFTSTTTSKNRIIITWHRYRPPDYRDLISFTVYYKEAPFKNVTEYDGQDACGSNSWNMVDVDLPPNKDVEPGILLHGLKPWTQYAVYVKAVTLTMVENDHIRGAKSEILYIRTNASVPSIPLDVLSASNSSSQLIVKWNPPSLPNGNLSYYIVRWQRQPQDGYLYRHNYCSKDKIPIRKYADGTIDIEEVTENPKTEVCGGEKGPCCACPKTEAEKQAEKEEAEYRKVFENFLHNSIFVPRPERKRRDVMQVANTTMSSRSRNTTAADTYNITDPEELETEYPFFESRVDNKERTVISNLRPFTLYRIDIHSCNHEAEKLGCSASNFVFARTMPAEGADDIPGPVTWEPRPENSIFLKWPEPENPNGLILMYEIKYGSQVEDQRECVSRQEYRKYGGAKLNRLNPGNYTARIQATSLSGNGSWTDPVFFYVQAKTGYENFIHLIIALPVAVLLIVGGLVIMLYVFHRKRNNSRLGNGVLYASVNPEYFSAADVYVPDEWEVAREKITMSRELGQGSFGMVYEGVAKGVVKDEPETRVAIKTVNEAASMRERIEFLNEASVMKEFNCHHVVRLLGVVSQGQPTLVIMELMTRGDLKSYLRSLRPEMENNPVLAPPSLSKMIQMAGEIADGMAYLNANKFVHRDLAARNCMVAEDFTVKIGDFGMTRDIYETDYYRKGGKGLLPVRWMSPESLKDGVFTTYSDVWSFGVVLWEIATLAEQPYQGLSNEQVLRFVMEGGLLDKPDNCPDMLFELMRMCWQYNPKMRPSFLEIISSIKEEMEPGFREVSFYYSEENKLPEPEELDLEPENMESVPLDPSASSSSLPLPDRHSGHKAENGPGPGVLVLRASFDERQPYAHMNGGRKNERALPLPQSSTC

IC50 (IGF-1R) | IC50 (EGFR) | SMILES
> 100 µM | > 100 µM | CCOC(=O)c1c(C)[nH]c(C=C2C(=O)Nc3ccccc32)c1C [3-(2,4-dimethyl-3-ethoxycarbonylpyrrol-5-methylidenyl)-2-indolinone]
> 100 µM | > 100 µM | CCc1c(C=C2C(=O)Nc3ccccc32)[nH]c(C(=O)O)c1C [3-(2-carboxy-4-ethyl-3-methylpyrrol-5-methylidenyl)-2-indolinone]
